Laboratory results taken from ChEMBL document CHEMBL1201862, “PubChem BioAssay data set” (2004).
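The compound was tested at five concentrations on cells cultured in 96-well plates, with a 48-hour exposure period. The concentration for 50% growth inhibition is given as GI50.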 The source made the active and inactive calls. Rule as the data show it: active = GI50 up to about 1.1 µM and inactive = higher.

Experiments:
Assay in all cases: growth of human tumour cells (NCI), 48 h
DLD-1 = test system: DLD-1
HOP-92 = test system: HOP-92
SNB-75 = test system: SNB-75
SNB-78 = test system: SNB-78
A549 = test system: A549
ACHN = test system: ACHN
DMS-114 = test system: DMS-114
EKVX = test system: EKVX
HCT-116 = test system: HCT-116
HT-29 = test system: HT-29
NCI-H460 = test system: NCI-H460
OVCAR-8 = test system: OVCAR-8
SF-268 = test system: SF-268
SF-539 = test system: SF-539

Measured: GI50

CNC(=O)CN1CC(=O)N(C)C(=O)C1
inactive: DLD-1 > 100 µM | HOP-92 > 100 µM | SNB-75 > 100 µM | SNB-78 > 100 µM

CC1(C)Cc2c(C#N)c(N)c3c(c2CO1)C(=O)OC3=O
inactive: A549 > 100 µM | ACHN > 100 µM | DMS-114 > 100 µM | EKVX > 100 µM | HCT-116 > 100 µM | HT-29 > 100 µM | NCI-H460 > 100 µM | OVCAR-8 > 100 µM | SF-268 > 100 µM | SF-539 > 100 µM
